Consider nine molecules from PubChem BioAssay AID1259411 (Chemical Carcinogenesis Research Information System (CCRIS), 2018).

Active and inactive are the calls of the source. No rule for the calls is given here.

The subject of this series is rodent carcinogenicity bioassays, tumor incidence. The experiment in a line: CCRIS carcinogenicity studies. In a few lines: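 NCI-built, expert-reviewed records of carcinogenicity and related test outcomes (mutagenicity, tumor promotion/inhibition) compiled from published and report sources, historical span 1985-2011, not updated.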

Regarding `Cc1ccc2c(c1[N+](=O)[O-])C(=O)c1ccccc1C2=O`, the carcinogen call is “active; positive” (Species: MOUSE, Strain/Sex: B6C3F1/FEMALE, Route: ORAL, Dose: 0, 0.03, 0.06% IN DIET, Dose: 0, 0.03, 0.06% IN DIET, Tumor Site: Type of Lesion: LIVER: HEMANGIOSARCOMA); “active; positive” (Species: MOUSE, Strain/Sex: B6C3F1/MALE, Route: ORAL, Dose: 0, 0.03, 0.06% IN DIET, Dose: 0, 0.03, 0.06% IN DIET, Tumor Site: Type of Lesion: LIVER: HEMANGIOSARCOMA); “active; positive” (Species: RAT, Strain/Sex: F344/MALE, Route: ORAL, Dose: 0, 0.12, 0.06% IN DIET, Dose: 0, 0.12, 0.06% IN DIET, Tumor Site: Type of Lesion: LIVER: HEPATOCELLULAR CARCINOMA OR NEOPLASTIC NODULE, INTEGUMENTARY SYSTEM (SUBCUTANEOUS TISSUE): FIBROMA).

As for `ClC(Cl)=C(Cl)Cl`, the carcinogen call (Species: MOUSE, Strain/Sex: B6C3F1/FEMALE, Route: GAVAGE, Dose: 0, 386, 772 MG/KG, TWA FOR 78 WKS, Dose: 0, 386, 772 MG/KG, TWA FOR 78 WKS, Tumor Site: Type of Lesion: LIVER: HEPATOCELLULAR CARCINOMA) was “active; positive”; the carcinogen call (Species: MOUSE, Strain/Sex: B6C3F1/FEMALE, Route: INHALATION, Dose: 0, 100, 200 PPM 6 HR/D, 5 D/WK FOR 103 WK, Dose: 0, 100, 200 PPM 6 HR/D, 5 D/WK FOR 103 WK, Tumor Site: Type of Lesion: LIVER: HEPATOCELLULAR CARCINOMA, HEPATOCELLULAR ADENOMA OR CARCINOMA) is “active; positive”; the carcinogen call (Species: MOUSE, Strain/Sex: B6C3F1/MALE, Route: GAVAGE, Dose: 0, 536, 1072 MG/KG, TWA FOR 78 WKS, Dose: 0, 536, 1072 MG/KG, TWA FOR 78 WKS, Tumor Site: Type of Lesion: LIVER: HEPATOCELLULAR CARCINOMA) is “active; positive”; the carcinogen call (Species: MOUSE, Strain/Sex: B6C3F1/MALE, Route: INHALATION, Dose: 0, 100, 200 PPM 6 HR/D, 5 D/WK FOR 103 WK, Dose: 0, 100, 200 PPM 6 HR/D, 5 D/WK FOR 103 WK, Tumor Site: Type of Lesion: LIVER: HEPATOCELLULAR ADENOMA, HEPATOCELLULAR CARCINOMA) is “active; positive”; the carcinogen call (Species: RAT, Strain/Sex: F344/FEMALE, Route: INHALATION, Dose: 0, 200, 400 PPM 6 HR/D, 5 D/WK FOR 103 WK, Dose: 0, 200, 400 PPM 6 HR/D, 5 D/WK FOR 103 WK, Tumor Site: Type of Lesion: HEMATOPOIETIC SYSTEM: MONONUCLEAR CELL LEUKEMIA) is “active; positive”; the carcinogen call (Species: RAT, Strain/Sex: F344/MALE, Route: INHALATION, Dose: 0, 200, 400 PPM 6 HR/D, 5 D/WK FOR 103 WK, Dose: 0, 200, 400 PPM 6 HR/D, 5 D/WK FOR 103 WK, Tumor Site: Type of Lesion: HEMATOPOIETIC SYSTEM: MONONUCLEAR CELL LEUKEMIA) was “active; positive”.

`CC(C)OS(C)(=O)=O`: where the note is “Species: MOUSE, Strain/Sex: ICR/FEMALE, Route: SUBCUTANEOUS, Dose: 0, 10 UMOL/MOUSE IN TRIOCTANOIN INTO LEFT FLANK, 1/WK FOR 139 D (STUDY DURATION: 139 D), Tumor Site: Type of Lesion: THYMUS GLAND: LYMPHOMA”, the carcinogen call was “active; positive”.

With `COc1cc2c(c3oc(=O)c4c(c13)CCC4=O)[C@]1(O)C=CO[C@@H]1O2`, the carcinogen call (Species: FISH, Strain/Sex: RAINBOW TROUT, Route: ORAL, Dose: 0, 1.5, 7.5, UG/KG DIET FOR 5.5 MO (STUDY DURATION: 5.5 MO), Dose: 0, 1.5, 7.5, UG/KG DIET FOR 5.5 MO (STUDY DURATION: 5.5 MO), Tumor Site: Type of Lesion: LIVER: HEPATOMA) is “active; positive”; the carcinogen call (Species: RAT, Strain/Sex: F344/MALE, Route: ORAL, Dose: 0, 0.5, 5, 50 PPB IN AGAR BASED SEMISYNTHETIC DIET FOR STUDY DURATION (STUDY DURATION: 21 MO), Dose: 0, 0.5, 5, 50 PPB IN AGAR BASED SEMISYNTHETIC DIET FOR STUDY DURATION (STUDY DURATION: 21 MO), Tumor Site: Type of Lesion: LIVER: NEOPLASTIC NODULE, HEPATOCELLULAR CARCINOMA) was “active; positive”; the carcinogen call (Species: TROUT, Strain/Sex: MT. SHASTA RAINBOW, Route: ORAL, Dose: 4, 16, 32, 64 PPB IN DIET FOR 12 MO, Dose: 4, 16, 32, 64 PPB IN DIET FOR 12 MO, Tumor Site: Type of Lesion: LIVER: HEPATOMA) is “active; positive”.

As to `CCc1cc(Cc2cc(CC)cc(C(C)(C)C)c2O)c(O)c(C(C)(C)C)c1`, the carcinogen call (Species: RAT, Strain/Sex: WISTAR/MALE, Route: ORAL, Dose: 0, 0.03, 0.1, 0.3% IN DIET FOR DURATION OF STUDY (STUDY DURATION: 18 MO), Dose: 0, 0.03, 0.1, 0.3% IN DIET FOR DURATION OF STUDY (STUDY DURATION: 18 MO)) is “inactive; negative”.

In the case of `CC1(C)[C@H](C(=O)O[C@H](C#N)c2cccc(Oc3ccccc3)c2)[C@@H]1C(Br)C(Br)(Br)Br` (stereo not given in full), the carcinogen call runs as follows: (Species: Mouse, Strain/Sex: Not reported by DPR/Female (60-80/Group), Route: Gavage, Dose: 0, 0.75, 3.0, 10.0 mg/kg/day in corn oil for 104 wk, Dose: 0, 0.75, 3.0, 10.0 mg/kg/day in corn oil for 104 wk) “inactive; negative”; (Species: Mouse, Strain/Sex: Not reported by DPR/Male (60-80/Group), Route: Gavage, Dose: 0, 0.75, 3.0, 10.0 mg/kg/day in corn oil for 104 wk, Dose: 0, 0.75, 3.0, 10.0 mg/kg/day in corn oil for 104 wk) “inactive; negative”; (Species: Rat, Strain/Sex: Not reported by DPR/Female (60-80/Group), Route: Gavage, Dose: 0, 0.75, 3.0, 12.0 mg/kg/day in corn oil for 104 wk, Dose: 0, 0.75, 3.0, 12.0 mg/kg/day in corn oil for 104 wk) “inactive; negative”; (Species: Rat, Strain/Sex: Not reported by DPR/Male (60-80/Group), Route: Gavage, Dose: 0, 0.75, 3.0, 12.0 mg/kg/day in corn oil for 104 wk, Dose: 0, 0.75, 3.0, 12.0 mg/kg/day in corn oil for 104 wk) “inactive; negative”.

Take `Clc1ccc2c(c1)Oc1ccc(Cl)cc1O2`: the carcinogen call (Species: MOUSE, Strain/Sex: B6C3F1/FEMALE, Route: ORAL, Dose: 0, 5,000, 10,000 PPM IN DIET FOR 90 WK (STUDY DURATION: 91-98 WK), Dose: 0, 5,000, 10,000 PPM IN DIET FOR 90 WK (STUDY DURATION: 91-98 WK)) is “inactive; negative”; the carcinogen call (Species: MOUSE, Strain/Sex: B6C3F1/MALE, Route: ORAL, Dose: 0, 5000, 10000 PPM IN DIET FOR 90 WK (STUDY DURATION: 92-101 WK), Dose: 0, 5000, 10000 PPM IN DIET FOR 90 WK (STUDY DURATION: 92-101 WK), Tumor Site: Type of Lesion: LIVER: HEPTOCELLULAR ADENOMA OR CARCINOMA, HEMATOPOIETIC SYSTEM: LYMPHOMA OR LEUKEMIA, SPLEEN: HEMANGIOMA OR HEMANGIOSAR, Tumor Site: Type of Lesion: LIVER: HEPTOCELLULAR ADENOMA OR CARCINOMA, HEMATOPOIETIC SYSTEM: LYMPHOMA OR LEUKEMIA, SPLEEN: HEMANGIOMA OR HEMANGIOSAR) is on record as “equivocal”; the carcinogen call (Species: RAT, Strain/Sex: OSBORNE-MENDEL/FEMALE, Route: ORAL, Dose: 0, 5,000, 10,000 PPM IN DIET FOR 110 WK (STUDY DURATION: 110-117 WK), Dose: 0, 5,000, 10,000 PPM IN DIET FOR 110 WK (STUDY DURATION: 110-117 WK)) is “inactive; negative”; the carcinogen call (Species: RAT, Strain/Sex: OSBORNE-MENDEL/MALE, Route: ORAL, Dose: 0, 5,000, 10,000 PPM IN DIET FOR 110 WK (STUDY DURATION: 110-112 WK), Dose: 0, 5,000, 10,000 PPM IN DIET FOR 110 WK (STUDY DURATION: 110-112 WK)) is “inactive; negative”.

Take `NC(Cc1cnc[nH]1)C(=O)O` (stereo not given): the carcinogen call by setting is: (Species: RAT, Strain/Sex: F344/FEMALE, Route: ORAL, Dose: 0, 1.25, 2.5% IN DIET FOR 104 WK (STUDY DURATION: 107 WK), Dose: 0, 1.25, 2.5% IN DIET FOR 104 WK (STUDY DURATION: 107 WK)) “inactive; negative”; (Species: RAT, Strain/Sex: F344/MALE, Route: ORAL, Dose: 0, 1.25, 2.5% IN DIET FOR 104 WK (STUDY DURATION: 107 WK), Dose: 0, 1.25, 2.5% IN DIET FOR 104 WK (STUDY DURATION: 107 WK)) “inactive; negative”.

Turning to `Cc1ccccc1N=O`, for the setting “Species: RAT, Strain/Sex: F344/MALE, Route: ORAL, Dose: 3.38 G/KG- DIET FOR 72 WK (TOTAL DOSE 0.21 MOL/RAT), Tumor Site: Type of Lesion: LIVER: HEPATOMA, URINARY BLADDER: PAPILLOMA, PERITONEAL CAVITY: MESOTHELIOMA, SARCOMA, SPLEEN: FIBROMA, INTEGUMENTARY SY, Tumor Site: Type of Lesion: LIVER: HEPATOMA, URINARY BLADDER: PAPILLOMA, PERITONEAL CAVITY: MESOTHELIOMA, SARCOMA, SPLEEN: FIBROMA, INTEGUMENTARY SY”, the carcinogen call is “active; positive”.
